Test results reported in US20120088753A1, “PYRROLOPYRIMIDINES AND USED AS KINASE INHIBITORS” (MEDICAL RESEARCH COUNCIL TECHNOLOGY, priority 2009, published 2012).

Target: T1, TBK1 (Homo sapiens, UniProt Q9UHD2)
T1 construct: All protein kinases were of human origin and encoded full length proteins, unless indicated otherwise; His6; made in house; host or cells: insect Sf21 cells
T1 sequence (Q9UHD2 1-729): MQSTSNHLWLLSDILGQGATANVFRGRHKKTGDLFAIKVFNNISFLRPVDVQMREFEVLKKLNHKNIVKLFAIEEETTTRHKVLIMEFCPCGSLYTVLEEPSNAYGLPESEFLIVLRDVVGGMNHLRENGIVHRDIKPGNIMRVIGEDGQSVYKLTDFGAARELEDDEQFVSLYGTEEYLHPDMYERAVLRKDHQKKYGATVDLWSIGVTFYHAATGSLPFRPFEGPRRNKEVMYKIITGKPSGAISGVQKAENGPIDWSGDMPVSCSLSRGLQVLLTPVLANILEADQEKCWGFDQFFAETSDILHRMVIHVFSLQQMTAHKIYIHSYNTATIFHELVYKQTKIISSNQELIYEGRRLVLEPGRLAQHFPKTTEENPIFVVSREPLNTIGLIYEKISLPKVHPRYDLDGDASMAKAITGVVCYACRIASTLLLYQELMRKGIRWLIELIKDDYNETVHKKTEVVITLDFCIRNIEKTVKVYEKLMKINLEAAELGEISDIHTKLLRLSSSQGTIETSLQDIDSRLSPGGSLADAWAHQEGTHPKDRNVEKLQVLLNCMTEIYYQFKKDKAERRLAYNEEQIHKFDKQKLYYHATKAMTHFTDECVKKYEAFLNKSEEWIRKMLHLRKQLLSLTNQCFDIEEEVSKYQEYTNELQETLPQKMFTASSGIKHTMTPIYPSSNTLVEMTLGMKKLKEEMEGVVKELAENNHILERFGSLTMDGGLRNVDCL
Test: TBK1 protein kinase assay ([γ-33P]ATP filter-plate, IC50 from 10 concentrations)
Type: biochemical
Conditions: 50 μM ATP, peptide substrate 300 μM, 30 min, 21° C.; read-out: Potency score (TBK1 IC50)
Description: All protein kinases were of human origin and encoded full length proteins, unless indicated otherwise. They were either expressed as glutathione S-transferase (GST) fusion proteins in Escherichia Coli or as hexahistidine (His6)-tagged proteins in insect Sf21 cells. GST fusion proteins were purified by affinity chromatography on glutathione-Sepharose, and His6-tagged proteins on nickel/nitriloacetate-agarose. The procedures for expressing some of the protein kinases used herein have been detailed previously.^8,9 The following sections outline the DNA vectors synthesised and the procedures used to express and purifying protein kinases that have not been reported previously.
The following kinases were expressed in Sf21 cells: Aurora B and Aurora C, extra-cellular signal-regulated kinase 8 (ERK8), microtubule affinity regulating kinase 3 (MARK3), protein kinase Bα[118-480][S473D], protein kinase Bβ (PKBβ[120-481][S474D], 3-phosphoinositide-dependent protein kinase-1 [52-556] (PDK1[52-556], IKKε, TBK1,
All assays (25.5 μl) were carried out at room temperature (21° C.) and were linear with respect to time and enzyme concentration under the conditions used. Assays were performed for 30 min using Multidrop Micro reagent dispensers (Thermo Electron Corporation, Waltham, Mass. 02454, USA) in a 96-well format. The concentration of magnesium acetate in the assays was 10 mM and the [γ-33P] ATP (800 cpm/pmol) was used at 5, 20 or 50 μM as indicated, in order to be at or below the Km for ATP for each enzyme. Protein kinases assayed at 5 μM ATP were: ERK1, ERK8, PKBα, MARK3, Aurora C. Protein kinases assayed at 20 μM ATP were: JNK1, PDK1, CHK1, CHK2, CDK2 and Aurora B. Protein kinases assayed at 50 μM ATP were: MNK2, IKKepsilon and TBK1.
The assays were initiated with MgATP, stopped by addition of 5 μl of 0.5 M orthophosphoric acid and spotted on to P81 filterplates using a unifilter harvester (PerkinElmer, Boston, Mass. 02118, USA). The IC50 values of inhibitors were determined after carrying out assays at 10 different concentrations of each compound.
ERK1 and ERK8 were both assayed against myelin basic protein (MBP, 0.33 mg/ml). MARK3 was assayed against the peptide […] (300 μM), MNK2 against the eIF4E protein (0.5 mg/ml). PKBβ was assayed against the peptide GRPRTSSFAEGKK (30 μM). TBK1 were assayed against ([…]) (300 μM). The substrates used for other protein kinases were described previously.^8,9
Unless stated otherwise, enzymes were diluted in 50 mM Tris/HCl pH 7.5, 0.1 mM EGTA, 1 mg/ml BSA, 0.1% (v/v) 2-mercaptoethanol and assayed in 50 mM Tris/HCl pH 7.5, 0.1 mM EGTA, 0.1% (v/v) 2-mercaptoethanol.

Row | SMILES | IC50 [nM]
1 | Cn1ncc2cc(Nc3ncc4ccn(CCCNC(=O)C5CCC5)c4n3)ccc21 [Example 1, Cyclobutanecarboxylic acid {3-[2-(1-methyl-1H-indazol-5-ylamino)-pyrrolo[2,3-d]pyrimidin-7-yl]propyl}-amide] | < 100
2 | Cn1ncc2ccc(Nc3ncc4ccn(CCCNC(=O)C5CCC5)c4n3)cc21 [Example 2, Cyclobutanecarboxylic acid {3-[2-(1-methyl-1H-indazol-6-ylamino)-pyrrolo[2,3-d]pyrimidin-7-yl]-propyl}-amide] | < 100
3 | O=C(NCCCn1ccc2cnc(Nc3ccc(N4CCOCC4)cc3)nc21)C1CCC1 [Example 3, Cyclobutanecarboxylic acid {3-[2-(4-morpholin-4-yl-phenylamino)-pyrrolo[2,3-d]pyrimidin-7-yl]-propyl}-amide] | < 100
4 | CN1CCN(c2ccc(Nc3ncc4ccn(CCCNC(=O)C5CCC5)c4n3)cc2)CC1 [Example 4, Cyclobutanecarboxylic acid (3-{2-[4-(4-methyl-piperazin-1-yl)-phenylamino]-pyrrolo[2,3-d]pyrimidin-7-yl}-propyl)-amide] | < 100
5 | CN(C)Cc1ccc(Nc2ncc3ccn(CCCNC(=O)C4CCC4)c3n2)cc1 [Example 5, Cyclobutanecarboxylic acid {3-[2-(4-dimethylaminomethyl-phenylamino)-pyrrolo[2,3-d]pyrimidin-7-yl]-propyl}-amide] | < 100
6 | O=C(NCCCn1ccc2cnc(Nc3cccc(CN4CCCC4)c3)nc21)C1CCC1 [Example 6, Cyclobutanecarboxylic acid {3-[2-(3-pyrrolidin-1-ylmethyl-phenylamino)-pyrrolo[2,3-d]pyrimidin-7-yl]-propyl}-amide] | < 100
7 | O=C(NCCCn1ccc2cnc(Nc3cccc(-c4cnco4)c3)nc21)C1CCC1 [Example 7, Cyclobutanecarboxylic acid {3-[2-(3-oxazol-5-yl-phenylamino)-pyrrolo[2,3-d]pyrimidin-7-yl]-propyl}-amide] | < 100
8 | Cn1cc(Nc2ncc3ccn(CCCNC(=O)C4CCC4)c3n2)cn1 [Example 8, Cyclobutanecarboxylic acid {3-[2-(1-methyl-1H-pyrazol-4-ylamino)-pyrrolo[2,3-d]pyrimidin-7-yl]-propyl}-amide] | < 100
9 | O=C(NCCCn1ccc2cnc(Nc3cnn(CCN4CCOCC4)c3)nc21)C1CCC1 [Example 9, Cyclobutanecarboxylic acid (3-{2-[1-(2-morpholin-4-yl-ethyl)-1H-pyrazol-4-ylamino]-pyrrolo[2,3-d]pyrimidin-7-yl}-propyl)-amide] | 100 to 1000
10 | O=C(NCCCn1ccc2cnc(Nc3cccc(F)c3)nc21)c1cccs1 [Example 10, Thiophene-2-carboxylic acid {3-[2-(3-fluoro-phenylamino)-pyrrolo[2,3-d]pyrimidin-7-yl]-propyl}-amide] | < 100
11 | N#Cc1cccc(Nc2ncc3ccn(CCCNC(=O)c4cccs4)c3n2)c1 [Example 11, Thiophene-2-carboxylic acid {3-[2-(3-cyano-phenylamino)-pyrrolo[2,3-d]pyrimidin-7-yl]-propyl}-amide] | 100 to 1000
12 | O=C(NCCCn1ccc2cnc(Nc3cccnc3)nc21)c1cccs1 [Example 12, Thiophene-2-carboxylic acid {3-[2-(pyridin-3-ylamino)-pyrrolo[2,3-d]pyrimidin-7-yl]-propyl}-amide] | 100 to 1000
13 | O=C(NCCCn1ccc2cnc(Nc3cccc(C(F)(F)F)c3)nc21)c1cccs1 [Example 13, Thiophene-2-carboxylic acid {3-[2-(3-trifluoromethyl-phenylamino)-pyrrolo[2,3-d]pyrimidin-7-yl]-propyl}-amide] | 1000 to 10000
14 | O=C(NCCCn1ccc2cnc(Nc3cccc(NC(=O)N4CCCC4)c3)nc21)c1cccs1 [Example 14, Pyrrolidine-1-carboxylic acid [3-(7-{3-[(thiophene-2-carbonyl)-amino]-propyl}-7H-pyrrolo[2,3-d]pyrimidin-2-ylamino)-phenyl]-amide] | 100 to 1000
15 | O=C(NCCCn1ccc2cnc(Nc3ccc(C(=O)N4CCOCC4)cc3)nc21)C1CCC1 [Example 15, Cyclobutanecarboxylic acid (3-{2-[4-(morpholine-4-carbonyl)-phenylamino]-pyrrolo[2,3-d]pyrimidin-7-yl}-propyl)-amide] | < 100
16 | O=C(NCCCn1ccc2cnc(Nc3ccc(N4CCOCC4)nc3)nc21)C1CCCC1 [Example 16, Cyclopentanecarboxylic acid {3-[2-(6-morpholin-4-yl-pyridin-3-ylamino)-pyrrolo[2,3-d]pyrimidin-7-yl]-propyl}-amide] | < 100
17 | O=C(NCCCn1ccc2cnc(Nc3ccc(N4CCOCC4)nc3)nc21)c1cnccn1 [Example 17, Pyrazine-2-carboxylic acid {3-[2-(6-morpholin-4-yl-pyridin-3-ylamino)-pyrrolo[2,3-d]pyrimidin-7-yl]-propyl}-amide] | 100 to 1000
18 | O=C(CC1CC1)NCCCn1ccc2cnc(Nc3ccc(N4CCOCC4)nc3)nc21 [Example 18, 2-Cyclopropyl-N-{3-[2-(6-morpholin-4-yl-pyridin-3-ylamino)-pyrrolo[2,3-d]pyrimidin-7-yl]-propyl}-acetamide] | 100 to 1000
19 | CC(C)CC(=O)NCCCn1ccc2cnc(Nc3ccc(N4CCOCC4)nc3)nc21 [Example 19, 3-Methyl-N-{3-[2-(6-morpholin-4-yl-pyridin-3-ylamino)-pyrrolo[2,3-d]pyrimidin-7-yl]-propyl}-butyramide] | 100 to 1000
20 | O=C(NCCCn1ccc2cnc(Nc3ccc(N4CCOCC4)nc3)nc21)C1CCOC1 (stereo not shown) [Example 20, Tetrahydro-furan-3-carboxylic acid {3-[2-(6-morpholin-4-yl-pyridin-3-ylamino)-pyrrolo[2,3-d]pyrimidin-7-yl]-propyl}-amide] | < 100
21 | O=C(NCCCn1ccc2cnc(Nc3ccc(N4CCOCC4)nc3)nc21)c1cncs1 [Example 21, Thiazole-5-carboxylic acid {3-[2-(6-morpholin-4-yl-pyridin-3-ylamino)-pyrrolo[2,3-d]pyrimidin-7-yl]-propyl}-amide] | 100 to 1000
22 | O=C(NCCCn1ccc2cnc(Nc3ccc(N4CCOCC4)nc3)nc21)C1CC1 [Example 22, Cyclopropanecarboxylic acid {3-[2-(6-morpholin-4-yl-pyridin-3-ylamino)-pyrrolo[2,3-d]pyrimidin-7-yl]-propyl}-amide] | 100 to 1000
23 | CC(C)C(=O)NCCCn1ccc2cnc(Nc3ccc(N4CCOCC4)nc3)nc21 [Example 23, N-{3-[2-(6-Morpholin-4-yl-pyridin-3-ylamino)-pyrrolo[2,3-d]pyrimidin-7-yl]-propyl}-isobutyramide] | 1000 to 10000
24 | O=C(NCCCn1ccc2cnc(Nc3ccc(N4CCOCC4)nc3)nc21)C1CCCCC1 [Example 24, Cyclohexanecarboxylic acid {3-[2-(6-morpholin-4-yl-pyridin-3-ylamino)-pyrrolo[2,3-d]pyrimidin-7-yl]-propyl}-amide] | 100 to 1000
25 | O=C(CC1CCCC1)NCCCn1ccc2cnc(Nc3ccc(N4CCOCC4)nc3)nc21 [Example 25, 2-Cyclopentyl-N-{3-[2-(6-morpholin-4-yl-pyridin-3-ylamino)-pyrrolo[2,3-d]pyrimidin-7-yl]-propyl}-acetamide] | 100 to 1000
